Results on 4 compounds are retold here after patent US10828315B2 (Madrigal Pharmaceuticals, Inc., priority 2013, dated 2020).

The structures appear in SMILES notation. Where “and” joins values, the source holds several entries; their conditions need not be identical. Equal values may be shown once. Read-outs that look alike come from different tables or passages of the source. Where only a bound is given, the exact number is not on record here.

The nature of data set [1]: Mouse plasma stability protocol, up to 1 h (Examples 16-18). The following applies: for % Remaining (1 h): % Remaining of parent after 1 h incubation in mouse plasma at 37° C. (10 μM).
The test system of a further data set is H 3211 NSLC cells. Description: IC50 of continuous and pulsed exposure (Examples 9 and 10). Type of data set: cell-based.
Data set [2] in a line: Stability in human plasma, 2 h at 37° C. (Example 5). Type of data set: in vitro ADME. The protocol: (§1) SDC-TRAP-0022 and SDC-TRAP-0028 were incubated in human and mouse plasma for 2 h at 37° C. and assayed for integrity at 0.25, 0.5, 1 and 2 h. The values reported below are the remaining of the parent compound at the end of the 2 h incubation period.
For data set [3], the system named is HER2. Nature of the data set: HER2 degradation in BT-474 cells (Example 3, Methods 1 and 2). Format: cell-based, human. Summed up: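 BT-474 cells treated 24 h at 37 °C with 10-point 3-fold compound dilutions; HER2 read by in-cell immunofluorescence after paraformaldehyde fixation, signal normalized to DRAQ5 nuclear stain, EC50 from curve fit. Degradation also checked by western blot of cytosolic lysates against tubulin.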

The test system of data set [4] is HER2. Nature of the data set: HER2 degradation assay with BT-474 cell line (Example 12, FACS). Type of data set: cell-based, human.
Data set [5] is described as follows: Stability in mouse plasma, 2 h at 37° C. (Example 5). Format: in vitro ADME. On the procedure: as §1
Another data set deals with Human H3122 NSCLC cells. Description: Cell viability assay (CellTiter-Glo) in H3122 cells (Example 4). The following applies: NCI-H3122. Type of data set: cell-based. The protocol:
Human H3122 NSCLC cells were obtained and grown in RPMI in the presence of fetal bovine serum (10%), 2 mM L-glutamine and antibiotics (100 IU/ml penicillin and 100 μg/ml streptomycin, Sigma Aldrich.) Cells were maintained at 37° C., 5% CO2 atmosphere.
Cell viability was measured using the CellTiter-Glo® assay (Promega). In brief, cells were plated in 96-well plates in triplicate at optimal seeding density (determined empirically) and incubated at 37° C., 5% CO2 atmosphere for 24 hr prior to the addition of drug or vehicle (0.3% DMSO) to the culture medium. At the end of the assay, CellTiter-Glo was added to the wells per manufacturer's recommendation, shaken for two minutes and incubated for 10 minutes at room temperature. Luminescence (0.1 sec) was measured with a Victor II microplate reader (Perkin Elmer) and the resulting data were used to calculate cell viability, normalized to vehicle control.
Cells as described above were treated with exemplary SDC-TRAPs and their viability determined as above as well. The following table illustrates the results.

For data set [6] the following is noted: mouse, plasma, 1 h, 10 µM.
A short description of data set [7]: Tissue distribution of ganetespib in mice bearing RERF human NSCLC xenografts. The following applies: ganetespib 50 mg/kg IV. In general terms: A xenograft is tissue or cells of one species grown in another, often human tumour cells in immunodeficient mice.
Excerpt: Tissue distribution of ganetespib in female CD-1 nu/nu mice bearing RERF human NSCLC xenografts
Data set [8] concerns H2AX phosphorylation, HSP70, EGFR, MET. Nature of the data set: Pharmacodynamics in CRC (HCT-116) xenograft tumors. Type of data set: in vivo, mouse. The following applies: HCT-116 tumors.
The test system of data set [9] is Hsp90 client proteins (EGFR, MET, CDC2), Hsp70, DNA damage markers. Description: Pharmacodynamics in SCLC xenograft tumors. Format: in vivo. The following applies: SCLC xenograft tumors, 24 hrs after drug exposure.
Data set [10] has as its system human urinary bladder cancer cell line RT-112. Description: Cytotoxicity assay (CellTiter-Glo, 72 h), RT-112. The following applies: RT-112, 72 h, read-out: Cytotoxicity (IC50, nM) RT-112. Type of data set: cell-based. A general note: ATP-based viability assays read luminescence as a measure of living cells.
Description: (§2) Cytotoxicity of SDC-TRAP molecules was determined in three cancer cell lines. […] 80 μL of CellTiter-Glo was added to each well, followed by room temperature incubation in the dark for 15 minutes. Cell was determined by luminescence. IC50 was calculated using XLfit™ software.
The nature of data set [11]: Artificial membrane permeability assay (PAMPA). The following applies: same protocol, second table.
Data set [12] has as its system HCT-116 human colorectal xenografts. Nature of the data set: Mouse xenograft efficacy in HCT-116 colon cancer model. The following applies: IV, Q7D×3, then drug-free period; SDC-TRAP-0063 200 and 100 mg/kg, SDC-TRAP-0046 94 mg/kg, irinotecan 67 mg/kg, SYN-01 100 mg/kg.
Description: The cells were maintained in vitro as a monolayer culture in McCoy's 5a Medium. Fetal bovine serum was then be added to the medium. The final concentration of fetal bovine serum was 10%. Cells were cultured at 37° C. and 5% CO2. The tumor cells were routinely sub-cultured twice weekly by trypsin-EDTA treatment. Cells in an exponential growth phase were harvested and counted for tumor inoculation.
100 18-22 g, 5-7 week old, female BALB/cA nude mice were inoculated with the HCT 116 cells (2.0×10^6, 1:1 with Matrigel) subcutaneously on the back of each animal (0.1 mL/mouse). When the average tumor volume reached about 150-250 mm^3, 60 of the inoculated mice was selected based on tumor growth and randomly grouped into 6 treatment groups (10 mice per group) according to the following table.
The administrations were made with 27-gauge IV needle.
During the treatment period, the implanted tumors were measured by caliper twice per week. The tumors were measured for the maximum width (X) and length (Y) and the tumor volumes (V) were calculated using the formula: V=(X^2Y)/2. The differences in the tumor volume between the control and treatment groups were analyzed for significance using the unpaired two-tailed Student's t-test. P<0.05 was considered to be statistically significant. The animal body weights were also weighed and recorded twice per week.
In data set [13] the test system is human urinary bladder cancer cell line SW780. Nature of the data set: Cytotoxicity assay (CellTiter-Glo, 72 h), SW780. Type of data set: cell-based. The following applies: SW780, 72 h, read-out: Cytotoxicity (IC50, nM) SW-780.
Description: as §2
Data set [14] has as its system human breast cancer cell line BT-474. Description: Cytotoxicity assay (CellTiter-Glo, 72 h), BT-474. The following applies: BT-474, 72 h, read-out: Cytotoxicity (IC50, nM) BT-474. Format: cell-based.
Description: as §2
Data set [15] can be described thus: Stability in cell culture media (Example 18).
Description: 98 μL of DMEM+10% FBS, +1% P/S, +1.5 g/L sodium bicarbonate cell culture media was mixed with 2 μL of DMSO and aliquotted into 96-well plates at 250 μL per 0, 1, 2, and 18 hour time point.
3×50 μL media samples in 96 were held in 96-well plates at −80° C. until the last time point was extracted. 200 μL of methanol containing IS was added and mixed by vortex at 1500 rpm for 1.5 minutes at room temperature. The samples were centrifuged at 4400 rpm for 10 minutes at 8° C.
Setting [16] is: Tissue Distribution Data for SDC-TRAP-0046, Time (h) 0.083.
[17] abbreviates: Tissue Distribution Data for SDC-TRAP-0046, Time (h) 6.
The mark [18] stands for this setting: Tissue Distribution Data for SDC-TRAP-0046, Time (h) 12.
[19] abbreviates: Tissue Distribution Data for SDC-TRAP-0046, Time (h) 24.
[20] abbreviates: Tissue Distribution Data for SDC-TRAP-0046, Time (h) 48.
The mark [21] stands for this setting: after SDC-TRAP-0046 50 mg/110 mL/kg IV, DRD, 6 h.
[22] abbreviates: after SDC-TRAP-0046 50 mg/110 mL/kg IV, DRD, 12 h.
The mark [23] stands for this setting: after SDC-TRAP-0046 50 mg/110 mL/kg IV, DRD, 24 h.
[24] abbreviates: after SDC-TRAP-0046 50 mg/110 mL/kg IV, DRD, 48 h.

For the compound `CCc1c2c(nc3ccc(OC(=O)N(C)CCn4ccc5cc(-n6c(O)nnc6-c6cc(C(C)C)c(O)cc6O)ccc54)cc13)-c1cc3c(c(=O)n1C2)COC(=O)C3(O)CC` (stereo not drawn) [SDC-TRAP-0022, 4,11-diethyl-4-hydroxy-3,14-dioxo-3,4,12,14-tetrahydro-1H-pyrano[3′,4′:6,7]indolizino[1,2-b]quinolin-9-yl (2-(5-(3-(2,4-dihydroxy-5-isopropylphenyl)-5-hydroxy-4H-1,2,4-triazol-4-yl)-1H-indol-1-yl)ethyl)(methyl)carbamate], the “% Remaining (1 h)” value in [1] stood at 21.0%. Further, the “% Remaining (1 h, 37° C.)” value in data set [1] (mouse plasma) turned out to be 21%. In addition, the IC50 in the data set on H 3211 NSLC cells (1 h, read-out: IC50, 1h-pulse/71h-compound free, 7.5 × 10^3 cells/well, two replicate columns) is greater than 3000 nM; with H 3211 NSLC cells (read-out: IC50, 1h-pulse/71h-compound free, 7.5 × 10^3 cells/well, two replicate columns), greater than 3000 nM; in the data set on H 3211 NSLC cells (read-out: IC50, 72h-continuous, 7.5 × 10^3 cells/well, three replicate columns), 193 nM and 823 nM and 460 nM; in the data set on HER2 [3], greater than 5000 nM; in the data set with HER2 [4] it was greater than 5000 nM; in the data set with Human H3122 NSCLC cells, 492 nM. Also, the “% Remaining 2 h (37° C.), HU” value in data set [2] (human plasma, 1 μM) is reported as 29%; in [2] (human plasma, 10 μM), 30%. Besides, the “% Remaining 2 h (37° C.), MO” value in data set [5] (mouse plasma, 1 μM) was 32%; in data set [5] (mouse plasma, 10 μM), 31%.
Take `CCc1c2c(nc3ccc(OCC(=O)N(C)CCOCCn4ccc5cc(-n6c(O)nnc6-c6cc(C(C)C)c(O)cc6O)ccc54)cc13)-c1cc3c(c(=O)n1C2)COC(=O)C3(O)CC` (stereo not drawn) [SDC-TRAP-0028, 2-((4,11-diethyl-4-hydroxy-3,14-dioxo-3,4,12,14-tetrahydro-1H-pyrano[3′,4′: 6,7]indolizino[1,2-b]quinolin-9-yl)oxy)-N-(2-(2-(5-(3-(2,4-dihydroxy-5-isopropylphenyl)-5-hydroxy-4H-1,2,4-triazol-4-yl)-1H-indol-1-yl)ethoxy)ethyl)-N-methylacetamide]: the “% Remaining 2 h (37° C.), HU” value in data set [2] (human, plasma, 2 h, 1 μM) was 51%; in data set [2] (human, plasma, 2 h, 10 μM), 65%. For the same compound, the “% Remaining 2 h (37° C.), MO” value is on record as 53% in [5] (mouse, plasma, 2 h, 1 μM) and 47% in data set [5] (mouse, plasma, 2 h, 10 μM). Further, the “% Remaining (1 h)” value in data set [6] turned out to be 40.9%. Moreover, the “% Remaining (1 h, 37° C.)” value in data set [6] came to 41%. The IC50 with Human H3122 NSCLC cells was 909 nM.
For `CC(C)c1cc(-c2n[nH]c(=O)n2-c2ccc3c(ccn3C)c2)c(O)cc1O` [ganetespib, reference compound], the plasma concentration entry in [7] (DRD, 24 hr) is listed as “<LLOQ”. The “mean concentration in plasma relative to RBC” value in data set [7] (5 min) is “about 10 times”. The “persistence in tumor versus plasma and other tissues” value in data set [7] (up to 24 hr) is listed as “persist longer in tumor than in plasma or any other tissues studied”. For the same compound, the H2AX phosphorylation result in data set [8] (24 hr) was “induces H2AX phosphorylation”. The “HSP70 and Hsp90 client protein (EGFR, MET) expression” value in data set [8] (24 hr exposure) is “induces HSP70 expression and reduces the level of EGFR and MET compared to vehicle”. In data set [9], the “Hsp90 client proteins (EGFR, MET, CDC2) and Hsp70 expression” value was “Hsp90 clients EGFR, MET and CDC2 are diminished”; the “markers for DNA damage (acetyl-histone H3, p53, p-H2AX)” value was “increases p-H2AX but has negligible effects on p53 and histone H3”.
Turning to `CCc1c2c(nc3ccc(OC(=O)N4CCN(Cc5ccc(-n6c(O)nnc6-c6cc(C(C)C)c(O)cc6O)cc5)CC4)cc13)-c1cc3c(c(=O)n1C2)COC(=O)C3(O)CC` (stereo not drawn) [SDC-TRAP-0046, 4,11-diethyl-4-hydroxy-3,14-dioxo-3,4,12,14-tetrahydro-1H-pyrano[3′,4′:6,7]indolizino[1,2-b]quinolin-9-yl 4-(4-(3-(2,4-dihydroxy-5-isopropylphenyl)-5-hydroxy-4H-1,2,4-triazol-4-yl)benzyl)piperazine-1-carboxylate], the “% Remaining (1 h)” value in [1] is listed as 51.6%. For the same compound, in [1] (mouse plasma), the “% Remaining (1 h, 37° C.)” value is on record as 52%. Moreover, in data set [1] (mouse plasma, data from single parent peak), the “Mouse (10 μM) % Remaining 1 h (37° C.)§” value is recorded as 50%. Besides, in [1] (mouse plasma, sum of both peaks), the “Mouse (10 μM) % Remaining 1 h (37° C.)*” value was 52%. The IC50 was 20 nM in data set [10]; 246 nM in the data set on HER2 [3]; 246 nM in the data set on HER2 [4]; 489 nM in data set [13]; 205 nM in data set [14]. Further, the “Plasma Conc.” value runs as follows: under setting [16], 360000 nM; under setting [17], 5880 nM; under setting [18], 2370 nM; under setting [19], 54.2 nM; under setting [20], “BQL”; under setting [21], 5880 nM. Moreover, the “Plasma Conc.” value runs as follows: under setting [22], 2370 nM; under setting [23], 54.2 nM; under setting [24], “BQL”. Besides, the “Tumor Conc.” value under setting [16] is listed as 6.94 nmol/g of tissue; the “Tumor Conc.” value under setting [17] is listed as 4.97 nmol/g of tissue; the “Tumor Conc.” value under setting [18] is 5.21 nmol/g of tissue; the “Tumor Conc.” value under setting [19] was 2.19 nmol/g of tissue; the “Tumor Conc.” value under setting [20] is on record as 0.188 nmol/g of tissue; the “Tumor Conc.” value under setting [21] is 4.97 nmol/g of tissue. The “Tumor Conc.” value reads like this: under setting [22], 5.21 nmol/g of tissue; under setting [23], 2.19 nmol/g of tissue; under setting [24], 0.188 nmol/g of tissue. The “Tumor/Plasma Ratio” value by setting is: under setting [16], 0.0193; under setting [17], 0.844; under setting [18], 2.20; under setting [19], 40.3; (after SDC-TRAP-0046 IV, 6 h) 0.844; (after SDC-TRAP-0046 IV, 12 h) 2.20. For the same compound, the “Tumor/Plasma Ratio” value by setting is: (after SDC-TRAP-0046 IV, 24 h) 40.3; (after SDC-TRAP-0046 IV, […]) 0.0193. Besides, the “Mass Retention” value in data set [11] was found to be 88.1%. The “antitumor activity in HCT-116 xenografts (FIG. 23)” value in [12] was “better activity in inhibiting the growth of HCT-116 cells in vivo than either positive control group”. Moreover, in data set [15], the “Media (5 μM) % Remaining 19 h (37° C.)” value is 37%. The “Media (5 μM) % Remaining 1 h (37° C.)§” value in data set [15] (data from single parent peak) is recorded as 62%. The “Media (5 μM) % Remaining 1 h (37° C.)*” value in data set [15] (sum of both peaks) is 65%.
